Experimental data reported in PubChem BioAssay (NCI).
Values joined by “and” are separate entries in the source; they are usually repeats but may differ in a detail not shown here. Equal values may be shown once.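 Five concentrations, 48 hours, 96-well plates. GI50: concentration for 50% inhibition of growth. The concentration for full growth arrest is given as TGI.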

Columns and labels:
Assay in all cases: NCI-60 cell line screen, 48 h
[1] = test system: MALME-3M melanoma
[2] = test system: HT29 colon
[3] = test system: KM12 colon
[4] = test system: HL-60(TB) leukemia
[5] = test system: 786-0 renal
[6] = test system: MCF7 breast
[7] = test system: ACHN renal
[8] = test system: HOP-62 NSCLC
[9] = test system: PC-3 prostate
[10] = test system: HS 578T breast
[11] = test system: CAKI-1 renal
[12] = test system: UACC-257 melanoma
[13] = test system: UACC-62 melanoma
[14] = test system: U251 CNS
[15] = test system: OVCAR-3 ovarian
[16] = test system: EKVX NSCLC
[17] = test system: LOX IMVI melanoma
[18] = test system: NCI/ADR-RES ovarian
[19] = test system: IGROV1 ovarian
[20] = test system: NCI-H522 lung
[21] = test system: K-562 leukemia
[22] = test system: SN12C renal
[23] = test system: DU-145 prostate
[24] = test system: MDA-MB-231 breast
[25] = test system: NCI-H226 lung
[26] = test system: MDA-MB-435
[27] = test system: M14 melanoma
[28] = test system: BT-549 breast
[29] = test system: COLO 205 colon
[30] = test system: SF-268 CNS
[31] = test system: OVCAR-5 ovarian
[32] = test system: T-47D breast
[33] = test system: MOLT-4 leukemia
[34] = test system: RXF 393 renal
[35] = test system: SK-OV-3 ovarian
[36] = test system: UO-31 renal
[37] = test system: OVCAR-4 ovarian
[38] = test system: HOP-92 NSCLC
[39] = test system: SK-MEL-28 melanoma
[40] = test system: NCI-H23 lung
[41] = test system: CCRF-CEM leukemia
[42] = test system: A498 renal
[43] = test system: A549 NSCLC
[44] = test system: SF-539 CNS
[45] = test system: HCT-116 colon
[46] = test system: HCT-15 colon
[47] = test system: RPMI-8226 leukemia
[48] = test system: HCC-2998 colon
[49] = test system: SR leukemia
[50] = test system: TK-10 renal
[51] = test system: SF-295 CNS
[52] = test system: SW-620 colon
[53] = test system: OVCAR-8 ovarian
[54] = test system: SNB-19 CNS
[55] = test system: NCI-H460 lung
[56] = test system: SK-MEL-5 melanoma
[57] = test system: SK-MEL-2 melanoma

COc1ccc(Cn2cc3c(c2-c2cc(OC)c(OC)c(OC)c2)CCc2cnoc2-3)cc1N
GI50 [1]: 38.2 nM
TGI [1]: > 100000 nM
GI50 [2]: 307 nM
TGI [2]: 1710 nM
GI50 [3]: 40.1 nM
TGI [3]: 1940 nM
GI50 [4]: 26.8 nM
TGI [4]: 184 nM
GI50 [5]: 59.9 nM
TGI [5]: > 23200 nM
GI50 [6]: 36 nM
TGI [6]: > 40000 nM
GI50 [7]: 73.1 nM
TGI [7]: > 100000 nM
GI50 [8]: 52.1 nM
TGI [8]: > 100000 nM
GI50 [9]: 75.1 nM
TGI [9]: > 100000 nM
GI50 [10]: 34.3 nM
TGI [10]: > 100000 nM
GI50 [11]: 31.9 nM
TGI [11]: > 100000 nM
GI50 [12]: > 23100 nM
TGI [12]: > 100000 nM
GI50 [13]: 44.7 nM
TGI [13]: > 86900 nM
GI50 [14]: 52.3 nM
TGI [14]: > 100000 nM
GI50 [15]: 26 nM
TGI [15]: 63.1 nM
GI50 [16]: 235 nM
TGI [16]: > 100000 nM
GI50 [17]: 64.1 nM
TGI [17]: > 100000 nM
GI50 [18]: 35.7 nM
TGI [18]: > 100000 nM
GI50 [19]: 81.8 nM
TGI [19]: > 72600 nM
GI50 [20]: 18 nM
TGI [20]: 58 nM
GI50 [21]: 35.1 nM
TGI [21]: > 100000 nM
GI50 [22]: 79.5 nM
TGI [22]: > 100000 nM
GI50 [23]: 34.3 nM
TGI [23]: 355 nM
GI50 [24]: 158 nM
TGI [24]: > 100000 nM
GI50 [25]: 537 nM
TGI [25]: > 100000 nM
GI50 [26]: 14.1 nM
TGI [26]: 38.4 nM
GI50 [27]: 50.7 nM
TGI [27]: > 100000 nM
GI50 [28]: 173 nM
TGI [28]: > 100000 nM
GI50 [29]: 251 nM
TGI [29]: 789 nM
GI50 [30]: 79.2 nM
TGI [30]: > 100000 nM
GI50 [31]: 324 nM
TGI [31]: > 100000 nM
GI50 [32]: 34 nM
TGI [32]: > 100000 nM
GI50 [33]: 64.8 nM
TGI [33]: > 45900 nM
GI50 [34]: 31.9 nM
TGI [34]: > 100000 nM
GI50 [35]: 44.7 nM
TGI [35]: > 100000 nM
GI50 [36]: 228 nM
TGI [36]: > 50900 nM
GI50 [37]: 103 nM
TGI [37]: > 100000 nM
GI50 [38]: 4580 nM
TGI [38]: > 100000 nM
GI50 [39]: 79.7 nM
TGI [39]: > 100000 nM
GI50 [40]: 50.7 nM
TGI [40]: > 100000 nM
GI50 [41]: 38.4 nM
GI50 [42]: 23.9 nM
TGI [42]: 524 nM
GI50 [43]: 82.1 nM
TGI [43]: > 100000 nM
GI50 [44]: 34.4 nM
TGI [44]: > 100000 nM
GI50 [45]: 45 nM
TGI [45]: 2840 nM
GI50 [46]: 45.4 nM
TGI [46]: > 100000 nM
GI50 [47]: 48.9 nM
GI50 [48]: 88.2 nM
TGI [48]: > 42000 nM
GI50 [49]: 32 nM
TGI [49]: 1390 nM
GI50 [50]: 68.9 nM
TGI [50]: > 100000 nM
GI50 [51]: 36.9 nM
TGI [51]: > 100000 nM
GI50 [52]: 38 nM
TGI [52]: > 100000 nM
GI50 [53]: 70.2 nM
TGI [53]: > 100000 nM
GI50 [54]: 62.1 nM
TGI [54]: > 100000 nM
GI50 [55]: 37.7 nM
TGI [55]: 5220 nM
GI50 [56]: 32.5 nM
TGI [56]: 1240 nM

CC(C)C[C@H](NC(=O)[C@H](Cc1cccc2ccccc12)NS(=O)(=O)c1cccc2cccnc12)B(O)O
GI50 [1]: 0.588 nM
TGI [1]: 17.5 nM and 20.8 nM
GI50 [2]: 0.937 nM
TGI [2]: 22 nM
GI50 [3]: 17.8 nM
TGI [3]: 114 nM and 179 nM
GI50 [4]: 0.204 nM
GI50 [5]: 49.5 nM
TGI [5]: 12800 nM
GI50 [6]: 0.525 nM
TGI [6]: > 30500 nM
TGI [7]: > 38800 nM
GI50 [8]: 51.1 nM
TGI [8]: 563 nM
GI50 [9]: 53.4 nM
TGI [9]: 817 nM and 418 nM
GI50 [10]: 1.37 nM
TGI [10]: 17 nM
GI50 [11]: 32 nM
TGI [11]: 198 nM and 1190 nM
TGI [12]: 29 nM and 35.7 nM
GI50 [13]: 4.88 nM
TGI [13]: 38.5 nM and 125 nM
GI50 [14]: 11 nM
TGI [14]: 1450 nM
GI50 [15]: 0.595 nM
TGI [15]: 14.9 nM and 30.9 nM
GI50 [16]: 109 nM
TGI [16]: > 100000 nM
GI50 [17]: 1.37 nM
TGI [17]: 22.6 nM and < 19.9 nM
TGI [18]: 17700 nM
GI50 [19]: 33.1 nM
TGI [19]: 298 nM and 301 nM
TGI [20]: 35.2 nM
GI50 [21]: 9.4 nM
TGI [21]: 163 nM
GI50 [22]: 7.1 nM
TGI [22]: 230 nM and 109 nM
TGI [23]: 524 nM
TGI [24]: 56.7 nM and 59.7 nM
TGI [25]: 0.542 nM
GI50 [26]: 0.241 nM
TGI [26]: 0.574 nM
GI50 [28]: 0.863 nM
TGI [28]: 39.5 nM
GI50 [29]: 28.8 nM
TGI [29]: 3790 nM
GI50 [31]: 8.27 nM
TGI [31]: 138 nM and 246 nM
GI50 [32]: 0.928 nM
TGI [32]: 26.9 nM and < 21.8 nM
GI50 [33]: 0.334 nM
TGI [33]: 2.28 nM
GI50 [34]: 9.19 nM
TGI [34]: 27.3 nM and < 23.7 nM
TGI [35]: > 33800 nM
GI50 [36]: 353 nM
TGI [36]: 1060 nM
TGI [37]: 173 nM
GI50 [38]: 29.9 nM
TGI [38]: 54.7 nM and 93.8 nM
GI50 [39]: 0.701 nM
TGI [39]: 11.6 nM
GI50 [40]: 6.12 nM
TGI [40]: 132 nM and 199 nM
GI50 [42]: 3.42 nM
TGI [42]: 222 nM and 126 nM
GI50 [43]: 62.6 nM
TGI [43]: > 28900 nM
GI50 [44]: 0.193 nM
GI50 [45]: 1.01 nM
TGI [45]: 20.3 nM and < 35.1 nM
GI50 [46]: 130 nM
TGI [46]: 403 nM
GI50 [47]: 0.296 nM
TGI [47]: 0.934 nM
GI50 [48]: 17.4 nM
TGI [48]: 14.9 nM and 38.9 nM
GI50 [49]: 0.169 nM
TGI [49]: 8.12 nM
GI50 [50]: 36 nM
TGI [50]: 351 nM
GI50 [51]: 61.4 nM and 59.6 nM
GI50 [52]: 1.5 nM
TGI [52]: 22.3 nM
GI50 [53]: 117 nM
TGI [53]: 409 nM and 2900 nM
TGI [54]: > 35300 nM
TGI [57]: 95 nM and 83.3 nM
GI50 [55]: 61.8 nM
TGI [55]: 1350 nM
GI50 [56]: 5.39 nM
TGI [56]: 71.4 nM and 20.6 nM
